# What was measured:
# [1] = test system: A549 (lung adenocarcinoma) cells; experiment: Cytotoxicity, Alamar blue assay, A549 cells; assay type: cell-based; settings: Homo sapiens, 24 h exposure
# Excerpt: (§1) Normal human foreskin (BJ) fibroblasts and two types of cancer cells, namely A549 (lung adenocarcinoma) and LNCaP (prostate carcinoma) purchased from American Type Culture Collection (Manassas, VA, USA), were used in the experiments. Each cell line was maintained in a different culture medium, depending on the metabolic necessities of the cells. BJ cells were maintained in Dulbecco’s modified Eagle’s medium (DMEM) with low glucose. A549 cells were maintained in DMEM with high glucose […], while LNCaP cells were grown in Roswell Park Memorial Institute (RPMI) 1640 medium with high glucose (5 g/L). All media used were supplemented with 10% fetal bovine serum (FBS) and were refreshed every two days. Cells were used in experiments or subcultured when they reached 70–80% confluence.
# (§2) In 100 µL in 96-well plates, a number of 30,000 LNCaP cells, 15,000 A549 cells, and 7500 normal (BJ) cells were seeded. Because the cells have different sizes and volumes, the purpose of the different seedings was to achieve a confluency of 70–80% after 24 h. All types of cells were further exposed to the synthesized compounds (5a–d and 6a–d) for 24 h, at a concentration ranging from 12.5 to 100 µg/mL. Post-exposure, the media were removed, and the cells were washed with phosphate buffer saline (PBS). Their viability was evaluated using Alamar blue (AB) assay as previously described. Briefly, the cells were incubated with a 200 µM resazurin solution for 4 h. Using a Synergy 2 multi-mode microplate reader, we measured the fluorescence. The measurement was performed at λexcitation = 530/25 nm; λemission = 590/35 nm. We conducted the experiments using three biological replicates, each one including 6 technical replicates. As negative controls (NC), cells exposed to culture medium containing 0.2% DMSO were used. Compared to the NC (100%), the results were expressed as relative values. We used IC50 values for the potency evaluation, and calculated them for each cell line, using the dose-effect curves obtained by fitting the experimental data with a 4-parameter logistic curve.
# (§3) Mean values ± standard deviation (SD) values of at least three biological replicates were used to calculate experimental data. One-way analysis of variance (ANOVA) with a post hoc Holm–Sidak test was used to statistically examine the data. Using SigmaPlot 11.0 software (Systat, Software Inc., Chicago, IL, USA), we performed the graphical display and data analysis. From a statistical point of view, the results were considered different, at values of p < 0.05.
# [2] = test system: LNCaP (prostate carcinoma) cells; experiment: Cytotoxicity, Alamar blue assay, LNCaP cells; assay type: cell-based; settings: Homo sapiens, 24 h exposure
# Excerpt: as §1, §2, §3
# [3] = test system: normal human foreskin fibroblasts (BJ); experiment: Cytotoxicity, Alamar blue assay, BJ cells; assay type: cell-based; settings: for IC50: Homo sapiens, Fibroblast, 24 h exposure, Alamar blue
# Excerpt: as §1, §2, §3
# [4] = ABTS˙+ radical scavenging assay
# Description: The stock solutions (1 mg/mL) of the tested compounds and the controls were obtained, by dissolving the substances in dimethyl sulfoxide (DMSO). Using Jasco V-530, an UV-VIS spectrophotometer (Jasco International Co., Ltd., Tokyo, Japan), we performed the colorimetric determinations in low-volume single-use 10 mm width cuvettes.
# The assays were performed in triplicate and the results are presented as averages for each assay.
# [5] = Phosphomolybdate assay for total antioxidant capacity (TAC); set-up: concentration or dose not given beside the values; settings: for TAC, % of Activity of Trolox: relative to Trolox; for TAC, % of Activity of Ascorbic Acid: relative to ascorbic acid
# Excerpt: Using the phosphomolybdate assay, we determined the total antioxidant capacity (TAC) of the tested compounds. We measured the solutions’ absorbances against a blank sample at λ = 695 nm, using a previously reported procedure by our group, based on initial literature reports. Using Equation (4), we calculated the TAC of 5a–d and 6a–d compounds.
# At acidic pH, the tested compounds transfer one electron to Mo^6+ to reduce it to Mo^5+.
# [6] = Molecular properties computed with SwissADME; settings: ratio of computed water solubilities
# Excerpt: In order to obtain preliminary information regarding molecular properties which could influence the pharmacokinetics of the compounds, we obtained them using SwissADME [44]. The evaluated molecular properties were the topological polar surface area (TPSA), octanol–water partition coefficient expressed as Moriguchi’s LogP [46], water solubility and violations of the Lipinski’s rule of five.
SMILES,IC50 [1] [µg/mL],IC50 [2] [µg/mL],IC50 [3] [µg/mL],IC50 [4] [µM],IC50 (ABTS˙^+ scavenging) [4] [µg/mL],% of ABTS˙^+ Scavenging ([4]; 0.83 µg/mL) [%],% of ABTS˙^+ Scavenging ([4]; 1.67 µg/mL) [%],% of ABTS˙^+ Scavenging ([4]; 3.33 µg/mL) [%],% of ABTS˙^+ Scavenging ([4]; 4.99 µg/mL),% of ABTS˙^+ Scavenging ([4]; 6.66 µg/mL),% of ABTS˙^+ Scavenging ([4]; 9.99 µg/mL),% of ABTS˙^+ Scavenging ([4]; 13.32 µg/mL),"TAC, % of Activity of Trolox [5] [%]","TAC, % of Activity of Ascorbic Acid [5] [%]",melting point [°C],"decrease of cellular viability in BJ cells ([3]; highest concentration tested, 24 h)",times more soluble in water than 6b [6] [times]
"C=CCn1c(SCC(=O)NN=Cc2ccc(O)c(O)c2O)nc2ccccc2c1=O [Compound 5a, 2-((3-Allyl-4-oxo-3,4-dihydroquinazolin-2-yl)thio)-N’-(2,3,4-trihydroxybenzylidene)acetohydrazide]",30.9,45.6,> 100,3.87,1.65,38.14,51.47,72.00,+ (+ represents more than 95%),+ (+ represents more than 95%),+ (+ represents more than 95%),+ (+ represents more than 95%),176.42,91.43,213,,
"CCCCn1c(SCC(=O)NN=Cc2ccc(O)c(O)c2O)nc2ccccc2c1=O [Compound 5d, 2-((3-Butyl-4-oxo-3,4-dihydroquinazolin-2-yl)thio)-N’-(2,3,4-trihydroxybenzylidene)acetohydrazide]",42.1,56.8,> 100,3.5,1.55,41.98,52.25,67.46,81.06%,+ (+ represents more than 95%),+ (+ represents more than 95%),+ (+ represents more than 95%),117.87,61.09,239,,
"CCn1c(SCC(=O)NN=Cc2ccc(O)c(O)c2O)nc2ccccc2c1=O [Compound 5c, 2-((3-Ethyl-4-oxo-3,4-dihydroquinazolin-2-yl)thio)-N’-(2,3,4-trihydroxybenzylidene)acetohydrazide]",49.1,35.9,> 100,3.86,1.60,39.05,52.25,72.57,+ (+ represents more than 95%),+ (+ represents more than 95%),+ (+ represents more than 95%),+ (+ represents more than 95%),163.49,84.73,208,approximately 40%,24
"O=C(CSc1nc2ccccc2c(=O)n1Cc1ccccc1)NN=Cc1ccc(O)c(O)c1O [Compound 5b, 2-((3-Benzyl-4-oxo-3,4-dihydroquinazolin-2-yl)thio)-N’-(2,3,4-trihydroxybenzylidene)acetohydrazide]",69.5,70,> 100,4.01,1.91,34.65,49.32,68.62,85.98%,+ (+ represents more than 95%),+ (+ represents more than 95%),+ (+ represents more than 95%),156.96,81.34,228,,
"CCCCn1c(SCC(=O)NN=C(C)c2ccc(O)cc2O)nc2ccccc2c1=O [Compound 6d, 2-((3-butyl-4-oxo-3,4-dihydroquinazolin-2-yl)thio)-N’-(1-(2,4-dihydroxyphenyl)ethylidene)acetohydrazide]",32.4,24.3,> 100,11.7,5.17,29.08,33.32,40.37,50.24%,57.59%,75.41%,85.79%,76.63,39.72,225,,
"C=CCn1c(SCC(=O)NN=C(C)c2ccc(O)cc2O)nc2ccccc2c1=O [Compound 6a, 2-((3-Allyl-4-oxo-3,4-dihydroquinazolin-2-yl)thio)-N’-(1-(2,4-dihydroxyphenyl)ethylidene)acetohydrazide]",35.7,43.4,> 100,16.9,7.17,27.03,30.08,37.19,42.27%,50.03%,60.55%,70.24%,94.38,48.91,230,,
"CC(=NNC(=O)CSc1nc2ccccc2c(=O)n1Cc1ccccc1)c1ccc(O)cc1O [Compound 6b, 2-((3-Benzyl-4-oxo-3,4-dihydroquinazolin-2-yl)thio)-N’-(1-(2,4-dihydroxyphenyl)ethylidene)acetohydrazide]",42.2,30.4,> 100,8.7,4.13,26.26,33.32,44.60,55.88%,68.23%,90.98%,+ (+ represents more than 95%),101.03,52.36,,,
"CCn1c(SCC(=O)NN=C(C)c2ccc(O)cc2O)nc2ccccc2c1=O [Compound 6c, N’-(1-(2,4-dihydroxyphenyl)ethylidene)-2-((3-ethyl-4-oxo-3,4-dihydroquinazolin-2-yl)thio)acetohydrazide]",> 100,> 100,> 100,9.84,4.06,29.08,34.73,43.19,54.47%,68.58%,91.60%,+ (+ represents more than 95%),110.05,57.03,,,
